These results are taken from PubChem BioAssay AID330 (DTP/NCI, 2004).

The test system of the assay is P388 leukemia ip, CD2F1 mice, survival T/C. In words: NCI In Vivo Anticancer Drug Screen. Data for tumor model P388 Leukemia (intraperitoneal) in CD2F1 (CDF1) mice. Particulars: endpoint: median survival time, higher = longer survival. A digest of the protocol: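 Mice carrying the transplanted tumor received test compound or vehicle. Survival was recorded in each group, and the value is the treated-group measurement divided by that of the vehicle-treated control group.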

[1] abbreviates: dose: 50.0 mg/kg/injection, schedule: Q01DX009 (ip), vehicle: Klucel (hydroxypropylcellulose) (HPC).
Setting [2] is: dose: 100.0 mg/kg/injection, schedule: Q01DX009 (ip), vehicle: Klucel (hydroxypropylcellulose) (HPC).
[3] abbreviates: dose: 200.0 mg/kg/injection, schedule: Q01DX009 (ip), vehicle: Klucel (hydroxypropylcellulose) (HPC).
The mark [4] stands for this setting: dose: 50.0 mg/kg/injection, schedule: Q01DX005 (ip), vehicle: saline with Tween-80.
Where [5] appears, read: dose: 100.0 mg/kg/injection, schedule: Q01DX005 (ip), vehicle: saline with Tween-80.
[6] abbreviates: dose: 200.0 mg/kg/injection, schedule: Q01DX005 (ip), vehicle: saline with Tween-80.

Several values for one entry are separate records, joined by “and”; a condition that tells them apart may be missing. Equal entries are not always repeated. Inconclusive results and toxic doses are left out.

Consider `COc1cccc2c1C(=O)c1c(O)c3c(c(O)c1C2=O)C[C@@](O)(/C(C)=N/NC(=O)c1ccccc1)C[C@@H]3OC1CC(N)C(O)C(C)O1` (stereo not given in full), for which the T/C by setting is: (dose: 0.12 mg/kg/injection, schedule: Q01DX009 (ip), vehicle: water) 99 % of control and 104 % of control and 89 % of control; (dose: 0.5 mg/kg/injection, schedule: Q01DX005 (ip), vehicle: suspension in saline) 120 % of control; (dose: 0.5 mg/kg/injection, schedule: Q01DX005 (iv), vehicle: suspension in saline) 109 % of control; (dose: 0.65 mg/kg/injection, schedule: Q01DX009 (ip), vehicle: saline) 168 % of control; (dose: 1.0 mg/kg/injection, schedule: Q01DX005 (iv), vehicle: suspension in saline) 110 % of control; (dose: 1.0 mg/kg/injection, schedule: Q01DX009 (ip), vehicle: other) 150 % of control. The T/C is 172 % of control (dose: 1.08 mg/kg/injection, schedule: Q01DX009 (ip), vehicle: saline); 177 % of control (dose: 1.56 mg/kg/injection, schedule: Q04DX003 (ip), vehicle: saline); 190 % of control (dose: 1.8 mg/kg/injection, schedule: Q01DX009 (ip), vehicle: saline); 108 % of control (dose: 2.0 mg/kg/injection, schedule: Q01DX005 (iv), vehicle: suspension in saline); 166 % of control (dose: 2.0 mg/kg/injection, schedule: Q01DX009 (ip), vehicle: other); 160 % of control (dose: 2.0 mg/kg/injection, schedule: Q04DX003 (ip), vehicle: water). Besides, the T/C (dose: 3.0 mg/kg/injection, schedule: Q01DX009 (ip), vehicle: saline) is 213 % of control; the T/C (dose: 3.0 mg/kg/injection, schedule: Q04DX003 (ip), vehicle: saline) is 150 % of control; the T/C (dose: 3.0 mg/kg/injection, schedule: Q04DX003 (ip), vehicle: water) was 115 % of control; the T/C (dose: 3.13 mg/kg/injection, schedule: Q04DX003 (ip), vehicle: saline) is 176 % of control; the T/C (dose: 3.2 mg/kg/injection, schedule: Q01DX001 (ip), vehicle: water) was 153 % of control; the T/C (dose: 3.24 mg/kg/injection, schedule: Q04DX003 (ip), vehicle: water) was 153 % of control. In addition, the T/C is, setting by setting: (dose: 4.0 mg/kg/injection, schedule: Q01DX005 (ip), vehicle: saline) 181 % of control; (dose: 4.0 mg/kg/injection, schedule: Q01DX005 (iv), vehicle: saline) 104 % of control; (dose: 4.0 mg/kg/injection, schedule: Q01DX009 (ip), vehicle: other) 175 % of control; (dose: 4.2 mg/kg/injection, schedule: Q01DX001 (ip), vehicle: water) 158 % of control; (dose: 5.0 mg/kg/injection, schedule: Q01DX001 (ip), vehicle: saline) 168 % of control; (dose: 5.0 mg/kg/injection, schedule: Q04DX003 (ip), vehicle: saline) 163 % of control. Also, the T/C is, setting by setting: (dose: 5.3 mg/kg/injection, schedule: Q01DX009 (ip), vehicle: saline) 157 % of control; (dose: 5.4 mg/kg/injection, schedule: Q04DX003 (ip), vehicle: water) 171 % of control; (dose: 5.6 mg/kg/injection, schedule: Q01DX001 (ip), vehicle: water) 165 % of control; (dose: 6.25 mg/kg/injection, schedule: Q04DX003 (ip), vehicle: saline) 205 % of control; (dose: 7.5 mg/kg/injection, schedule: Q01DX001 (ip), vehicle: water) 177 % of control; (dose: 8.0 mg/kg/injection, schedule: Q01DX001 (ip), vehicle: saline) 163 % of control. Further, the T/C was 229 % of control (dose: 8.0 mg/kg/injection, schedule: Q01DX005 (ip), vehicle: saline); 174 % of control (dose: 8.0 mg/kg/injection, schedule: Q01DX005 (ip), vehicle: suspension in saline); 151 % of control (dose: 8.0 mg/kg/injection, schedule: Q01DX005 (iv), vehicle: suspension in saline); 189 % of control (dose: 8.0 mg/kg/injection, schedule: Q01DX009 (ip), vehicle: other); 90 % of control (dose: 8.0 mg/kg/injection, schedule: Q01DX009 (ip), vehicle: saline); 163 % of control (dose: 8.0 mg/kg/injection, schedule: Q04DX003 (ip), vehicle: saline). Moreover, the T/C reads like this: (dose: 8.0 mg/kg/injection, schedule: Q04DX003 (ip), vehicle: water) 116 % of control and 190 % of control and 215 % of control; (dose: 8.3 mg/kg/injection, schedule: Q01DX009 (ip), vehicle: saline) 90 % of control; (dose: 9.0 mg/kg/injection, schedule: Q04DX003 (ip), vehicle: water) 175 % of control; (dose: 10.0 mg/kg/injection, schedule: Q01DX001 (ip), vehicle: clinical formulation) 160 % of control; (dose: 10.0 mg/kg/injection, schedule: Q01DX001 (ip), vehicle: water) 181 % of control; (dose: 12.0 mg/kg/injection, schedule: Q01DX001 (ip), vehicle: clinical formulation) 164 % of control. The T/C is 187 % of control (dose: 12.5 mg/kg/injection, schedule: Q04DX003 (ip), vehicle: saline); 113 % of control (dose: 13.3 mg/kg/injection, schedule: Q01DX001 (ip), vehicle: saline); 109 % of control (dose: 13.3 mg/kg/injection, schedule: Q04DX003 (ip), vehicle: saline); 167 % of control (dose: 14.0 mg/kg/injection, schedule: Q01DX001 (ip), vehicle: clinical formulation); 188 % of control (dose: 16.0 mg/kg/injection, schedule: Q01DX001 (ip), vehicle: clinical formulation); 211 % of control (dose: 16.0 mg/kg/injection, schedule: Q01DX005 (iv), vehicle: saline). The T/C runs as follows: (dose: 16.0 mg/kg/injection, schedule: Q04DX003 (ip), vehicle: water) 180 % of control and 318 % of control; (dose: 18.0 mg/kg/injection, schedule: Q01DX001 (ip), vehicle: clinical formulation) 179 % of control; (dose: 22.2 mg/kg/injection, schedule: Q01DX001 (ip), vehicle: saline) 95 % of control; (dose: 24.0 mg/kg/injection, schedule: Q04DX003 (ip), vehicle: water) 171 % of control; (dose: 32.0 mg/kg/injection, schedule: Q04DX003 (ip), vehicle: water) 163 % of control and 233 % of control; (dose: 48.0 mg/kg/injection, schedule: Q04DX003 (ip), vehicle: water) 117 % of control. Moreover, the T/C by setting is: (dose: 64.0 mg/kg/injection, schedule: Q04DX003 (ip), vehicle: water) 109 % of control and 114 % of control; (dose: 96.0 mg/kg/injection, schedule: Q04DX003 (ip), vehicle: water) 89 % of control.

Regarding `Cc1ccc(/C=N/S(=O)(=O)Cc2ccccc2)cc1`, the T/C by setting is: under setting [1], 99 % of control; under setting [2], 100 % of control; under setting [3], 100 % of control.

Regarding `CCCCCCOC(=O)c1cccc(N)c1`, the T/C by setting is: under setting [1], 100 % of control; under setting [2], 106 % of control; under setting [3], 102 % of control.

As for `COC(=O)c1ccc(N(C)CC/C(CN)=N/NC(N)=O)cc1`, the T/C by setting is: under setting [4], 99 % of control; under setting [5], 91 % of control; under setting [6], 87 % of control.

In the case of `CC(C)N1CCOC1c1ccccc1` (stereo not given), the T/C is, setting by setting: (dose: 50.0 mg/kg/injection, schedule: Q04DX003 (ip), vehicle: saline sonified) 109 % of control; (dose: 100.0 mg/kg/injection, schedule: Q04DX003 (ip), vehicle: saline sonified) 118 % of control; (dose: 200.0 mg/kg/injection, schedule: Q04DX003 (ip), vehicle: saline sonified) 109 % of control.

Take `O=C(/C=C\c1cccc2ccccc12)c1ccccn1`: the T/C reads like this: (dose: 100.0 mg/kg/injection, schedule: Q01DX001 (ip), vehicle: saline with Tween-80) 106 % of control; (dose: 200.0 mg/kg/injection, schedule: Q01DX001 (ip), vehicle: saline with Tween-80) 112 % of control; (dose: 400.0 mg/kg/injection, schedule: Q01DX001 (ip), vehicle: saline with Tween-80) 112 % of control.

In the case of `COc1ccc(-c2cc(-c3ccccc3)nc(-c3cccc([N+](=O)[O-])c3)c2)cc1`, the T/C under setting [1] was 100 % of control, the T/C under setting [2] is 124 % of control and the T/C under setting [3] was 97 % of control.

Turning to `CCOC(=O)CC1(O)CS/C(=C(\C#N)C(=O)OCC)N1c1ccccc1` (stereo not given), the T/C reads like this: under setting [4], 96 % of control; under setting [5], 100 % of control; under setting [6], 96 % of control.

Turning to `O=C(Nc1ccccc1[N+](=O)[O-])C1C(=O)C(=O)N(c2ccccc2[N+](=O)[O-])C1=O` (stereo not given), the T/C is, setting by setting: under setting [1], 99 % of control; under setting [2], 108 % of control; under setting [3], 99 % of control.
